{"source": "patent US8906865B2", "about": "“Treatment of inflammation and/or endotoxic shock” (ISIS Innovation Limited, priority 2007, dated 2014)", "molecules": {"B1": {"name": "Chemerin: 140 amino acid mouse Chemerin protein of Sequence ID no: 34 (protein, listed as Mus sp.)", "chain": "TVGTEPELSETQRRSLQVALEEFHKHPPVQLAFQEIGVDRAEEVLFSAGTFVRLEFKLQQTNCPKKDWKKPECTIKPNGRRRKCLACIKMDPKGKILGRIVHCPILKQGPQDPQELQCIKIAQAGEDPHGYFLPGQFAFS"}}, "system": "Murine peritoneal macrophages (PMΦ)", "assay": "Macrophage activation assay: LPS/IFNγ-induced inflammatory cytokine expression (ELISA, Luminex)", "type": "cell-based, mouse", "settings": "for Percentage inhibition of LPS/IFNγ-induced inflammatory cytokine expression: RANTES / Percentage inhibition of LPS/IFNγ-induced inflammatory cytokine expression: TNFα / Percentage inhibition of LPS/IFNγ-induced inflammatory cytokine expression: IL-1β / Percentage inhibition of LPS/IFNγ-induced inflammatory cytokine expression: IL-6 / Percentage inhibition of LPS/IFNγ-induced inflammatory cytokine expression: IL-12 p40: PMΦ; for Percentage inhibition of LPS/IFNγ-induced inflammatory cytokine expression: RANTES / Percentage inhibition of LPS/IFNγ-induced inflammatory cytokine expression: TNFα: pre-treatment 1 h (0.1 pM-100 nM), then LPS 100 ng/ml + IFNγ 20 ng/ml 15 h, optimal dose (1 pM Chemerin and C15, 100 pM C13 and C19); for Anti-inflammatory activity in the MΦ activation assay: peptides 0.1 pM-100 nM; for Suppression of LPS/IFNγ-induced RANTES secretion (FIG. 2B) / Suppression of LPS/IFNγ-induced TNFα expression (FIG. 2B): C13m 100 pM, C15m 1 pM, C17m 1 pM, pre-treatment 1 h then LPS/IFNγ 15 h; for Percentage inhibition of LPS/IFNγ-induced inflammatory cytokine expression: IL-1β / Percentage inhibition of LPS/IFNγ-induced inflammatory cytokine expression: IL-6 / Percentage inhibition of LPS/IFNγ-induced inflammatory cytokine expression: IL-12 p40: pre-treatment 1 h, then LPS/IFNγ 15 h, 1 pM Chemerin and C15; for Optimal dose (maximal response) for suppression of LPS/IFNγ-induced cytokine expression: macrophage activation assay", "protocol": "Murine peritoneal macrophages (PMθ, also referred to as PMΦ herein) were cultured under various conditions: Untreated; LPS (100 ng/ml) and IFNγ (20 ng/ml) for 15 h; Chemerin (1 pM) pre-treatment for 1 h then LPS/IFNγ for 15 h; Leupeptin (protease inhibitor; 15 mg/ml) and Chemerin (1 pM) for 1 h then LPS/IFNγ for 15 h; or Dexamethasone (positive control; 1 μM pre-treatment for 1 h then LPS/IFNγ for 15 h.\nMurine PMθ were cultured under various conditions: Untreated, LPS (100 ng/ml) and IFNγ (20 ng/ml) for 15 h; Chemerin peptides (at a concentration of 1 pM-100 nM) pre-treatment for 1 h then LPS/IFNγ for 15 h. […] Experiments were performed with triplicate determinations for each treatment. Representative data from five independent experiments employing cells from different groups of C57B16/J mice are shown. p<0.01 **; p<0.001 *** relative to LPS/IFNγ treated samples.\nWith reference to Table 1, anti-inflammatory activity of chemerin-derived peptides—Murine PMΦ were cultured as described for FIG. 1B and were challenged with LPS (100 ng/ml) and IFNγ (20 ng/ml) for 15 h with/without pre-treatment with peptides (0.1 pM-100 nM) for 1 h. […] Peptide sequences are: C11 (P144-A154; […]), C13 (P144-S156; […]), C15 (A140-A154; […]), C19 (A138-S156; […]; Seq ID: No. 37), N19 (E23-K41; […] Seq ID No: 44) and M20 (K86-K105; […] Seq ID No. 45). Control peptides: scrambled C15 (C15-S; […]) and mutant C15 (C15-M; […]; F148A & F153A). Data represent mean percentage inhibition of cytokine production by classically activated macrophages from 4-8 independent experiments as determined by ELISA and Luminex assay.\n1 ml 2% BioGEL polyacrylamide beads in sterile Phosphate-Buffered Saline (PBS) were injected intraperitoneally (ip) into C57B1/6J mice. Four days after ip BioGEL administration, mice were sacrificed by the CO, method according to Home Office guidelines. Peritoneal cavities were flushed with 10 ml sterile PBS-2 mM EDTA to harvest BioGEL-evoked/elicited cellular infiltrate. Suspensions of harvested cells were centrifuged at 1000×g for 5 mins at 4° C. The supernatants were discarded and cell pellets were resuspended in 6 mls OptiMEM medium supplemented with 2 mM Glutamine, 50 units/ml Penicillin and 50 μg/ml Streptomycin. Macrophages were quantified following incubation on ice for 5-10 mins with Turk's solution using a haemocytometer. Cell suspensions (2 mls; 1.5×10^6/well) were plated in six-well tissue culture plates (35 mm diameter: Costar, UK) and allowed to adhere for 2 hours at 37° C. in a humidified atmosphere containing 5% CO2, to isolate macrophage populations by adherence. This gave greater than 95% purity assessed by cytospinning, staining of cells with Methylene Blue and Eosin and counting based on cellular morphology. Nonadherent cells (mainly granulocytes) were discarded and wells were washed three times with sterile PBS to remove loosely adherent or dead cells. […] To determine PTX sensitivity and dependency upon proteolysis, cells were pre-incubated with PTX (200 ng/ml) or Leupeptin (15 μg/ml). Additional cells were treated with peptides alone. Supernatants were harvested and stored at −20° C. until use in Enzyme-Linked Immunosorbance Assays (ELISAs) and Luminex assays. Cells were lysed to allow extraction of total RNA by the TRIZOL method. Lysates were stored at −80° C. until RNA extraction following manufacturer's guidelines (Qiagen, RNeasy Mini Prep Kit).\nRANTES, Tumour necrosis factor (TNFα) and CCL9 concentrations in cell supernatants were assessed by ELISA. IL-12 p40, IL-10, IL-1β, TNFα, MCP-1 (Monocyte chemoattractant protein-1) and IL-6 levels were determined by Luminex multiplex bead assay (Bio-rad 6 plex assay). Lower limits of detection for ELISAs were 0.1-0.5 ng/ml and 10-50 pg/ml for Luminex assays."}
{"molecule": "AGEDPHGYALPGQAA (Mutant C15) [C15-M, control peptide, mutant C15 (F148A & F153A), reference compound]", "values": [{"measurement": "Percentage inhibition of LPS/IFNγ-induced inflammatory cytokine expression: RANTES", "value": 0, "unit": "%"}, {"measurement": "Percentage inhibition of LPS/IFNγ-induced inflammatory cytokine expression: TNFα", "value": 0, "unit": "%"}, {"measurement": "Anti-inflammatory activity in the MΦ activation assay", "value": "devoid of anti-inflammatory activity"}]}
{"molecule": "AGEDPHGYFLPGQFA (listed as Mus sp.) [C15]", "values": [{"measurement": "Suppression of LPS/IFNγ-induced RANTES secretion (FIG. 2B)", "value": 41, "unit": "%"}, {"measurement": "Suppression of LPS/IFNγ-induced TNFα expression (FIG. 2B)", "value": 56, "unit": "%"}, {"measurement": "Percentage inhibition of LPS/IFNγ-induced inflammatory cytokine expression: RANTES", "value": 47, "unit": "%"}, {"measurement": "Percentage inhibition of LPS/IFNγ-induced inflammatory cytokine expression: TNFα", "value": 61, "unit": "%"}, {"measurement": "Percentage inhibition of LPS/IFNγ-induced inflammatory cytokine expression: IL-1β", "value": 54, "unit": "%"}, {"measurement": "Percentage inhibition of LPS/IFNγ-induced inflammatory cytokine expression: IL-6", "value": 43, "unit": "%"}, {"measurement": "Percentage inhibition of LPS/IFNγ-induced inflammatory cytokine expression: IL-12 p40", "value": 47, "unit": "%"}, {"measurement": "Optimal dose (maximal response) for suppression of LPS/IFNγ-induced cytokine expression", "value": 1, "unit": "pM"}]}
{"molecule": "AGEDPHGYFLPGQFAFS (listed as Mus sp.) [C17m]", "values": [{"measurement": "Suppression of LPS/IFNγ-induced RANTES secretion (FIG. 2B)", "value": 49, "unit": "%"}, {"measurement": "Suppression of LPS/IFNγ-induced TNFα expression (FIG. 2B)", "value": 66, "unit": "%"}]}
{"molecule": "GLFHDQAGPPAGYEF (Scrambled C15) [C15-S, control peptide, scrambled C15, reference compound]", "values": [{"measurement": "Percentage inhibition of LPS/IFNγ-induced inflammatory cytokine expression: RANTES", "value": 0, "unit": "%"}, {"measurement": "Percentage inhibition of LPS/IFNγ-induced inflammatory cytokine expression: TNFα", "value": 0, "unit": "%"}, {"measurement": "Anti-inflammatory activity in the MΦ activation assay", "value": "devoid of anti-inflammatory activity"}]}
{"molecule": "B1", "values": [{"measurement": "Percentage inhibition of LPS/IFNγ-induced inflammatory cytokine expression: RANTES", "value": 40, "unit": "%"}, {"measurement": "Percentage inhibition of LPS/IFNγ-induced inflammatory cytokine expression: TNFα", "value": 70, "unit": "%"}, {"measurement": "Percentage inhibition of LPS/IFNγ-induced inflammatory cytokine expression: IL-1β", "value": 60, "unit": "%"}, {"measurement": "Percentage inhibition of LPS/IFNγ-induced inflammatory cytokine expression: IL-6", "value": 42, "unit": "%"}, {"measurement": "Percentage inhibition of LPS/IFNγ-induced inflammatory cytokine expression: IL-12 p40", "value": 54, "unit": "%"}, {"measurement": "Pertussis toxin sensitivity of the effects on macrophages (FIG. 1D)", "setting": "chemerin 0.1-1 pM ± PTX 200 ng/ml", "value": "pertussis toxin-sensitive"}, {"measurement": "Optimal dose (maximal response) for suppression of LPS/IFNγ-induced cytokine expression", "value": 1, "unit": "pM"}]}
